Patent US20090264528A1, “SERINE PALMITOYLCOA TRANSFERASE (SPT) INHIBITION BY MYRIOCIN OR GENETIC DEFICIENCY DECREASES CHOLESTEROL ABSORPTION” (The Research Foundation of State University of New York, priority 2008, published 2009)

Columns and labels:
triglyceride absorption = test: [3H]triolein-derived counts in plasma (triglyceride absorption); format: in vivo, mouse; conditions: myriocin treated animals (WT, apoE KO), within 24 hours
Protocol: (§1) FIGS. 5A-I depict several graphs that illustrate that SPT deficient mice absorbed less cholesterol. Mice (n=6, 10-12 weeks old) were fasted for 5 hours and gavaged with 0.1 microCi [^14C]cholesterol and 0.2 microCi [^3H]sitostanol with 0.5 mg unlabeled cholesterol dissolved in 15 microl of olive oil. Feces were collected after 24 hours and lipids were extracted for counting (FIGS. 5A, 5D, and 5G, cholesterol absorption, WT vs WT/myriocin; apoE KO vs apoE KO/myriocin; WT vs Sptlc1^+/−, respectively). Blood was collected during the 24 hour period (Panels B, E, and H, [^14C]cholesterol in blood, WT vs WT/myriocin; apoE KO vs apoE KO/myriocin; WT vs Sptlc1^+/−, respectively). To test specificity, the mice were gavaged with 0.2 microCi [^3H]triolein together with 0.5 mg/ml cold cholesterol. Blood was collected during the 24 hour period (FIGS. 5C, 5F, and 5I, [^3H] glycerolipids in blood, WT versus WT/myriocin; apoE KO versus apoE KO/myriocin; WT versus Sptlc1^+/−, respectively). Value is mean±SD. *P<0.01.
To investigate whether the effect of SPT deficiency was specific to cholesterol, experimental mice were fed with […] [^3H]triolein instead of [^14C]cholesterol, and blood was collected at different time points within 24 hours.

primary enterocyte = test: Cholesterol and oleic acid uptake by primary enterocytes; format: cell-based, mouse
Protocol: FIGS. 6A-D depict several graphs that illustrate that SPT deficient enterocytes absorb less cholesterol than controls. Enterocytes were isolated from mice (n=4, 12-14 weeks old) and resuspended in 4 ml of DMEM containing 0.05 microCi/ml of either [^14C]cholesterol (FIGS. 6A and 6C) or [^3H]oleic acid (FIGS. 6B and 6D). Enterocytes (100 microl) were collected at 5, 10, and 20 minutes, washed twice with DMEM, and cellular radioactivity was determined. The amounts of lipids were normalized to protein and plotted against time. FIGS. 6A and 6B, WT vs WT/myriocin; FIGS. 6C and 6D, WT vs Sptlc1^+/−, Values are mean±SD. *P<0.01.
Cholesterol uptake by primary enterocyte: The enterocyte cholesterol uptake study was carried out as disclosed in: Iqbal J, Hussain M M. Evidence for multiple complementary pathways for efficient cholesterol absorption in mice. J Lipid Res. 2005; 46:1491-1501, which is incorporated herein by reference in its entirety.
For further confirmation of the above in vivo observations, enterocytes were isolated from myriocin-treated or Sptlc1^+/− mice, as well as controls, incubated with radiolabeled cholesterol for varying times, and the cellular radioactivity was determined. […] Experiments were performed to study the uptake of [^3H]oleic acid.

cholesterol absorption = test: Blood [14C]-cholesterol within 24 hours after a single gavage; format: in vivo, mouse
Protocol: as §1
This confirmed that there was defective cholesterol absorption in these animals.

[1] = test system: apical membrane SM of small intestine segments; test: In situ lysenin treatment and cell mortality measurement (WST-1); format: cell-based, mouse; conditions: jejunum segments from myriocin-treated WT mice, 5 microg/ml lysenin, 30 minutes
Protocol: FIGS. 7A-B depict several graphs that illustrate that SPT deficiency decreased SM levels on the apical surface of mouse small intestine. Small intestines were turned inside-out and cut into 0.5 cm of segments from jejunum. The segments were then bathed in 0.5 ml of oxygenated DMEM containing 5% glutamine with 5 microg/ml lysenin or without it as control, at 37 degrees C. for 30 minutes. Then 0.05 ml of WST-1 cell proliferation reagent were added and continuously incubated at 37 degrees C. for 15 minutes. After incubation, solutions were transferred to an Eppendorf tube and quick-spun at maximum speed to pellet cell debris. Supernatants were read OD at 450 nm, a reading for viable cells. Background reading was the WST-1 reagent with no cell treatment. […]
In situ lysenin treatment and cell mortality measurement: Overnight-fasted mice were anesthetized and small intestines were isolated from WT animals with or without myriocin treatment, as well as sptlc1 KO and control mice. […] Supernatant was then measured OD at 450 nm, a reading for viable cells (WST-1 reagent with no cell incubation being the background reading). […]
Second, lysenin, a SM-specific cytotoxin, was used to measure apical membrane SM levels, since lysenin can recognize SM only when it forms aggregates or microdomains in the plasma membranes. […] Cell viability in tissue segments was measured by adding WST-1 cell proliferation reagent.

[2] = Mouse plasma lipid measurement; format: in vivo; conditions: for plasma Chol (cholesterol) / plasma PC (phosphatidylcholine) / plasma SM (sphingomyelin) / plasma TG (triglycerol): mean ± SD, N=6
Protocol: Mice and diet: Male C57BL/6J and apoE KO (Apolipoprotien E knockout) mice with a C57BL/6J background were obtained from the Jackson Laboratory (Bar Harbor, Me.). Sptlc1 heterozygous KO mice with a C57BL/6 background were created and bred in the inventors' laboratory. Myriocin was mixed with a chow diet. Eight- to 12-week-old WT or apoE KO (n=6) mice received myriocin 0.3 mg kg^−1·d^−1 for 12 weeks. The myriocin dose was chosen from a previous dose-dependent experiment with apoE-KO mice. Controls consisted of WT or apoE KO mice fed a chow diet (n=6). Sptlc1 heterozygous KO (Sptlc1^+/−)(n=6) and WT mice were also fed a chow diet. […]
As reported previously in (25), which is incorporated by reference herein, Sptlc1^+/− and WT mice had identical plasma lipid levels (Table 1).

With `CCCCCCC(=O)CCCCCC/C=C/C[C@@H](O)[C@H](O)[C@@](N)(CO)C(=O)O` [Myriocin, myriocin] the “[3H]triolein-derived counts in the plasma vs controls” value (triglyceride absorption) was “No significant changes”, the “uptake of [3H]oleic acid vs controls” value (primary enterocyte; enterocytes isolated from myriocin-treated mice) was “No significant changes” and the “radiolabeled cholesterol uptake (cellular radioactivity) vs controls” value (primary enterocyte; enterocytes isolated from myriocin-treated mice, 5, 10, 20 minutes) was “significantly less radioactivity”. For the same compound, the “[14C]-cholesterol in the circulation vs controls” value (cholesterol absorption; myriocin-treated WT mice) was “significantly less”, the “[14C]-cholesterol in the circulation vs controls” value (cholesterol absorption; myriocin-treated apoE KO mice) was “significantly less” and the “sensitivity to lysenin-mediated cytolysis vs controls” value [1] was “significantly less sensitivity”. The “plasma Chol (cholesterol)” value ([2]; ApoE KO mice) was 350 ± 42 mg/dL, the “plasma PC (phosphatidylcholine)” value ([2]; ApoE KO mice) was 334 ± 49 mg/dL and the “plasma SM (sphingomyelin)” value ([2]; ApoE KO mice) was 39 ± 4 mg/dL. For the same compound, the “plasma TG (triglycerol)” value ([2]; ApoE KO mice) was 89 ± 13 mg/dL, the “effect on plasma lipids, including SM, PC, and cholesterol levels” value ([2]; WT mice) was “no significant effect” and the “plasma Chol (cholesterol)” value ([2]; WT mice) was 95 ± 12 mg/dL. The “plasma PC (phosphatidylcholine)” value ([2]; WT mice) was 155 ± 31 mg/dL, the “plasma SM (sphingomyelin)” value ([2]; WT mice) was 22 ± 2 mg/dL and the “plasma TG (triglycerol)” value ([2]; WT mice) was 71 ± 15 mg/dL. The “decrease of plasma SM compared with controls” value ([2]; apoE KO mice, P<0.001) was 48% and the “decrease of plasma cholesterol compared with controls” value ([2]; apoE KO mice, P<0.01) was 37%.
